Our source for the Ki values is US6790866B2, “Sulfonamide and carboxamide derivatives and drugs containing the same as the active ingredient” (Ono Pharmaceutical Co., Ltd., priority 1996, dated 2004).

The target of this assay is T1, prostanoid receptor subtype (mouse EP1) (Mus musculus, UniProt P35375).
T1 construct: expressed in transfected cells; host or cells: CHO cells (membrane fraction)
T1 sequence (P35375 1-405): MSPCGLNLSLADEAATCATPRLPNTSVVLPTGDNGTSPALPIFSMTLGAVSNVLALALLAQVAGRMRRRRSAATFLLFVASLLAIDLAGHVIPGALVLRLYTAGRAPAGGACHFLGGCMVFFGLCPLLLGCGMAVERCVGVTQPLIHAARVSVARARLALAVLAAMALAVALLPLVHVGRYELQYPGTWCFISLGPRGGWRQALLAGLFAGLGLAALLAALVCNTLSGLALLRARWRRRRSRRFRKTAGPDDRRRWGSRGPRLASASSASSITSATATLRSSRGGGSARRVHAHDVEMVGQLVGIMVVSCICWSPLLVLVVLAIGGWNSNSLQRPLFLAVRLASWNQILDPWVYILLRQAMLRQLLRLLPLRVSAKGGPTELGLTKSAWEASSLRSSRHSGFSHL
The experiment in a line: Binding assay using expression cell of prostanoid receptor subtype (3H-PGE2 competition, CHO cell membrane fraction). As to conditions: membrane fraction of CHO cell expressing mouse EP1; 3H-PGE2 2.5 nM; Ki=IC50/(1+([C]/Kd)); read-out: dissociation constant Ki. As for the experimental part:
(i) Binding Assay Using Expression Cell of Prostanoid Receptor Subtype
The preparation of membrane fraction was carried out according to the method of Sugimoto et al (J. Biol. Chem. 267, 6463-6466 (1992)), using expression CHO cell of prostanoid receptor subtype (mouse EP1).
The standard assay mixture contained membrane fraction (0.5 mg/ml), ^3H-PGE2 in a final volume of 200 μl was incubated for 1 hour at room temperature. The reaction was terminated by addition of 3 ml of ice-cold buffer. The mixture was rapidly filtered through a glass filter (GF/B). The radioactivity associated with the filter was measured by liquid scintillation counting.
Kd and Bmax values were determined from Scratchard plots (Ann. N.Y. Acad. Sci. 51, 660 (1949)). Non-specific binding was calculated as the bond in the presence of an excess (2.5 μM) of unlabeled PGE2. In the experiment for competition of specific ^3H-PGE2 was added at a concentration of 2.5 nM and the compound of the present invention was added at a various concentration. The following buffer was used in all reaction.
Buffer: potassium phosphate (pH6.0, 10 mM), EDTA (1 mM), MgCl2 (10 mM), NaCl (0.1M).
The dissociation constant Ki (μM) of each compound was calculated by the following equation.
In the case of `CC(C)N(c1ccc(Cl)cc1OCc1ccc(C(=O)O)o1)S(=O)(=O)c1ccccc1` [24(9), 5-[2-(N-isopropyl-phenylsulfonylamino)-5-chlorophenoxymethyl]furan-2-carboxylic acid], the Ki – broadly, the equilibrium dissociation constant of an inhibitor or competing ligand from its target – was found to be 18 nM.

Regarding `CC(C)N(c1ccc(C(F)(F)F)cc1OCc1ccc(OCC(=O)O)cc1)S(=O)(=O)c1ccccc1` [Example 24, 4-[2-(N-isopropyl-phenylsulfonylamino)-5-trifluoromethylphenoxymethyl]phenoxy acetic acid], the Ki was 5.8 nM.

As to `O=C(O)c1ccc(COc2cc(Cl)ccc2NS(=O)(=O)c2ccccc2)nc1` [22(3), 6-(2-phenylsulfonylamino-5-chlorophenoxymethyl)nicotinic acid], the Ki was 480 nM.

On to `CC(C)N(c1ccc(C(F)(F)F)cc1N(C)Cc1ccc(C(=O)O)cc1)S(=O)(=O)c1ccccc1` [Example 30, 4-[N-methyl-[2-(N-isopropyl-phenylsulfonylamino)-5-trifluoromethylphenyl]aminomethyl]benzoic acid], for which the Ki was found to be 73 nM.

On to `Cc1ccc(N(C(C)C)S(=O)(=O)CC2CCCC2)c(OCc2ccc(C(=O)O)cc2)c1` [20(20), 4-[2-(N-isopropyl-cyclopentylmethylsulfonylamino)-5-methylphenoxymethyl]benzoic acid], for which the Ki was found to be 9.9 nM.

In the case of `CCCS(=O)(=O)N(Cc1ccccc1)c1ccc(C)cc1OCc1ccc(C(=O)O)cc1` [18(75), 4-[2-(N-benzyl-propylsulfonylamino)-5-methylphenoxymethyl]benzoic acid], the inhibition constant (Ki) stood at 5.4 nM.

Consider `CCN(c1ccc(C(F)(F)F)cc1OCc1ccc(/C=C/C(=O)O)cc1)S(=O)(=O)c1ccccc1` [18(102), 4-[2-(N-ethyl-phenylsulfonylamino)-5-trifluoromethylphenoxymethyl]cinnamic acid], for which the Ki was determined as 0.2 nM.

`CC(C)N(c1ccc(C(F)(F)F)cc1OCc1ccc(C#CC(=O)O)cc1)S(=O)(=O)c1ccccc1` [Example 44, 4-[2-(N-isopropyl-phenylsulfonylamino)-5-trifluoromethylphenoxymethyl]phenylpropiolic acid]: the Ki was 1.3 nM.

For `O=C(O)c1ccc(NC(=O)c2cc(Br)ccc2NS(=O)(=O)c2ccc(Cl)cc2)cc1` [2(k), 4-[2-(4-chlorophenylsulfonylamino)-5-bromobenzoylamino]benzoic acid], the Ki was found to be 99 nM.

Consider `CC(C)N(c1ccc(C(F)(F)F)cc1/C=C/c1ccc(C(=O)O)cc1)S(=O)(=O)c1ccccc1` [Example 48, 4-[2-[2-(N-isopropyl-phenylsulfonylamino)-5-trifluoromethylphenyl]-(E)-vinyl]benzoic acid], for which the Ki came out at 10 nM.

On to `CC(C)N(c1ccc(Cl)cc1OCc1ccc(C(=O)O)cc1)S(=O)(=O)c1cccs1` [18(58), 4-[2-(N-isopropyl-2-thienylsulfonylamino)-5-chlorophenoxymethyl]benzoic acid], for which the Ki was determined as 6.2 nM.

Turning to `CC(C)CN(c1ccc(C(F)(F)F)cc1OCc1ccc(/C=C/C(=O)O)cc1)S(=O)(=O)c1ccco1` [18(94), 4-[2-(N-isobutyl-2-furanylsulfonylamino)-5-trifluoromethylphenoxymethyl]cinnamic acid], the Ki turned out to be 0.4 nM.

On to `O=C(O)c1ccc(COc2ncc(C(F)(F)F)cc2NS(=O)(=O)c2ccccc2)cc1` [Example 38, 4-(3-phenylsulfonylamino-5-trifluoromethylpyridine-2-yloxymethyl)benzoic acid], for which the Ki stood at 160 nM.

For `CC(C)N(c1ccc(C(F)(F)F)cc1OC[C@H]1CC[C@H](C(=O)O)CC1)S(=O)(=O)c1ccccc1` [18(38), trans-4-[2-(N-isopropyl-phenylsulfonylamino)-5-trifluoromethylphenoxymethyl]cyclohexanoic acid], the Ki is 16 nM.

With `O=C(O)c1ccc(COc2cc(C(F)(F)F)ccc2N(C2CCCC2)S(=O)(=O)c2ccccc2)cc1` [18(30), 4-[2-(N-cyclopentyl-phenylsulfonylamino)-5-trifluoromethylphenoxymethyl]benzoic acid], the Ki turned out to be 1.6 nM.

Consider `O=C(O)c1ccc(COc2cc(Cl)ccc2CNS(=O)(=O)c2ccccc2)cc1` [Example 43, 4-(2-phenylsulfonylaminomethyl-5-chlorophenoxymethyl)benzoic acid], for which the Ki came to 380 nM.
